IC50 data for one compound are collected here from patent publication US6723722B1, “Acylhydrazine derivatives, their production and use” (Takeda Chemical Industries, Ltd., priority 1999, dated 2004).

This experiment concerns the target human FXa (Homo sapiens, UniProt P00742). Nature of the experiment: Human activated coagulation factor X (FXa) inhibiting effect. The settings on record: concentration at which the FXa effect was inhibited by 50%; substrate S-2765, 37° C., absorbance at 405 nm. It is filed as biochemical. On the procedure: (1) Human Activated Coagulation Factor X (FXa) Inhibiting Effect
Method: A cuvette was charged with 225 μl of 0.05 M tris buffer (pH 8.3) containing 0.145 M sodium chloride and 2 mM calcium chloride, 5 μl of a sample (test compound dissolved in dimethyl sulfoxide) and 10 μl of human FXa (0.3 unit/ml), which were reacted at 37° C. for 10 minutes and then combined with 10 μl of a substrate (3 mM, S-2765) and further reacted at 37° C. for 10 minutes. hen the reaction was terminated by adding 25 μl of 50% aqueous acetic acid, and the change in the absorbance at 405 nm was determined using a spectrophotometer to calculate the concentration at which the FXa effect was inhibited by 50% (IC50)

Sequence of human FXa (P00742 235-488 limits assumed): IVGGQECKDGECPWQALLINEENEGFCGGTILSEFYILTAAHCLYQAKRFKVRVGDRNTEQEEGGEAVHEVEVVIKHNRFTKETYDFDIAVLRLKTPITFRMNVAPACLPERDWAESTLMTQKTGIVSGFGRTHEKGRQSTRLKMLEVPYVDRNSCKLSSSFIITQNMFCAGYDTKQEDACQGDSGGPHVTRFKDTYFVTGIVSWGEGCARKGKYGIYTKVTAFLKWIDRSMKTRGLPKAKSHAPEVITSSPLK
Sequence of human FXa (P00742 41-179 partner limits assumed): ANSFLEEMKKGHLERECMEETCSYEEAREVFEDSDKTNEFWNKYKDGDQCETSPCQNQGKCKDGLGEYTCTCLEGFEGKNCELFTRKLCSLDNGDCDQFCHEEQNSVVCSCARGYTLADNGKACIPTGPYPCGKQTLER

Compound `O=C1CN(S(=O)(=O)C2=Cc3ccc(Cl)cc3OC2)CCN1NC1CCN(c2ccncc2)CC1` [Example 6] had an IC50 of 5.8 nM.

One may read the IC50 as the concentration that inhibits the measured activity by half. A higher IC50 goes with a need for much substance.
